Assay results reported in patent publication US4373094A, “Anthracycline derivatives” (Sanraku-Ocean Co., Ltd., priority 1980, dated 1983).
Values after ≈ are worked out from the molar mass of the structure shown.

Legend:
L1210 cells [1] = assay: Inhibition of DNA synthesis (14C-thymidine incorporation) in L1210 cells; assay type: cell-based, mouse; conditions: RPMI 1640 medium containing 10% calf serum, pulse-labeling 37° C. for 60 minutes; for IC50: Mus musculus, 1 h, read-out: 50% Inhibitory concentration, 14C-Thymidine (Inhibition of DNA synthesis)
Method: (§1) Independently of the above-mentioned experiment, the compounds of the present invention were added to an about 5×10^5 cells/ml L1210 cell suspension in RPMI 1640 medium containing 10% calf serum at a concentration of 0.02-2.5 μg/ml. After 15 minutes, ^14 C-uridine (0.05 μCi/ml) or ^14 C-thymidine (0.05 μCi/ml) was added to the suspension and pulse-labeling was carried out at 37° C. for 60 minutes. The reaction was stopped by addition of a cold 10% trichloroacetic acid solution and an acid-insoluble fraction was precipitated. The precipitate was washed with a cold 5% trichloroacetic acid and the radioactivity was measured.

L1210 cells [2] = assay: Inhibition of RNA synthesis (14C-uridine incorporation) in L1210 cells; assay type: cell-based, mouse; conditions: RPMI 1640 medium containing 10% calf serum, pulse-labeling 37° C. for 60 minutes; for IC50: Mus musculus, L1210, 1 h, read-out: 50% Inhibitory concentration, 14C-Uridine (Inhibition of RNA synthesis)
Method: as §1

Solubility in solvents = assay type: physicochemical; conditions: for Solubilities: slightly soluble: slightly soluble solvents; for Solubilities: soluble: soluble solvents
[3] = system: mouse leukemia L1210 cells; assay: Growth inhibition of cultured mouse leukemia L1210 cells (living cells counted); assay type: cell-based; conditions: for antitumor effect on L1210 leukemia cells: in words; for IC50: Mus musculus, L1210, L1210 cells, read-out: 50% Inhibitory concentration, Growth inhibition after 24 hours
Method: The L1210 cells were cultivated at 37° C. overnight and transferred to RPMI (Roswell Park Memorial Institute) 1640 medium containing 20% calf serum at their exponential growth phase so as to give a cell concentration of 4×10^4 cells/ml. The compounds of the present invention were added to the medium at a concentration of 0.02-0.5 μg/ml. […]
as §1

[4] = RPMI 1640 medium containing 20% calf serum, 37° C., head: after 24 hours (text: 3 days)

Compound	50% Inhibitory concentration, 14C-Thymidine (Inhibition of DNA synthesis) (L1210 cells [1]) [µg/mL]	50% Inhibitory concentration, 14C-Uridine (Inhibition of RNA synthesis) (L1210 cells [2]) [µg/mL]	Solubilities: slightly soluble (Solubility in solvents)	Solubilities: soluble (Solubility in solvents)	50% Inhibitory concentration, Growth inhibition after 24 hours ([3]; L1210 cells, RPMI 1640 medium containing 20% calf serum, 37° C., head: after 24 hours (text: 3 days)) [µg/mL]	antitumor effect on L1210 leukemia cells [3]	IC50 (L1210 cells [1]) [µg/mL]	IC50 (L1210 cells [2]) [µg/mL]	IC50 [3, 4] [µg/mL]
CCC1(O)CC(OC2CC(N(C)C)C(OC3CC(O)C(OC4CCC(O)C(C)O4)C(C)O3)C(C)O2)c2c(cc3c(c2O)C(=O)c2c(O)cc(O)cc2C3=O)C1C(=O)OC (stereo not shown) [2-hydroxy-aclacinomycin N]	1.2	0.18	slightly soluble in water, ether and n-hexane	soluble in acidic water, methanol, ethanol, n-butanol, acetone, ethyl acetate, chloroform, benzene, toluene, dimethylsulfoxide and methyl cellosolve	0.095	have an antitumor effect on L1210 leukemia cells			
CCC1(O)CC(OC2CC(N(C)C)C(OC3CC(O)C(OC4CCC(O)C(C)O4)C(C)O3)C(C)O2)c2c(cc3c(c2O)C(=O)c2c(O)cc(O)cc2C3=O)C1C(=O)OC (stereo not shown) [2-hydroxy-aclacinomycin M]			slightly soluble in water, ether and n-hexane	soluble in acidic water, methanol, ethanol, n-butanol, acetone, ethyl acetate, chloroform, benzene, toluene, dimethylsulfoxide and methyl cellosolve		have an antitumor effect on L1210 leukemia cells	1.2 (≈ 1.45 µM)	0.1 (≈ 0.12 µM)	0.08 (≈ 0.0964 µM)
CCC1(O)CC(OC2CC(N(C)C)C(OC3CC(O)C(OC4CCC(=O)C(C)O4)C(C)O3)C(C)O2)c2c(cc3c(c2O)C(=O)c2c(O)cc(O)cc2C3=O)C1C(=O)OC (stereo not shown) [2-hydroxy-aclacinomycin A, reference compound]							0.9 (≈ 1.09 µM)	0.14 (≈ 0.169 µM)	0.15 (≈ 0.181 µM)
CCC1(O)CC(OC2CC(N(C)C)C(O)C(C)O2)c2c(cc3c(c2O)C(=O)c2c(O)cc(O)cc2C3=O)C1C(=O)OC (stereo not shown) [2-hydroxy-aclacinomycin T]			slightly soluble in water, ether and n-hexane	soluble in acidic water, methanol, ethanol, n-butanol, acetone, ethyl acetate, chloroform, benzene, toluene, dimethylsulfoxide and methyl cellosolve		have an antitumor effect on L1210 leukemia cells		1 (≈ 1.71 µM)	0.46 (≈ 0.786 µM)
CCC1(O)CC(OC2CC(N(C)C)C(OC3CC(O)C(O)C(C)O3)C(C)O2)c2c(cc3c(c2O)C(=O)c2c(O)cc(O)cc2C3=O)C1C(=O)OC (stereo not shown) [2-hydroxy-aclacinomycin S]			slightly soluble in water, ether and n-hexane	soluble in acidic water, methanol, ethanol, n-butanol, acetone, ethyl acetate, chloroform, benzene, toluene, dimethylsulfoxide and methyl cellosolve		have an antitumor effect on L1210 leukemia cells		1.3 (≈ 1.82 µM)	0.7 (≈ 0.978 µM)
